Laboratory results taken from patent US20070250942A1, “Non-human transgenic mammals useful for identifying and assessing neural stem/progenitor cells” (Cold Spring Harbor Laboratory, priority 2006, published 2007).
Counter-ions that a name gives are not always drawn.

Columns and labels:
[1] = system: subventricular zone (SVZ); assay: Fluoxetine effect on neurogenesis in the subventricular zone of adult nestin-CFPnuc mice; format: in vivo, mouse; settings: 15 days treatment
Description: (§1) Immunohistochemistry. Tissues were fixed by transcardial perfusion with 30 ml of 4% (w/v) paraformaldehyde in PBS, pH 7.4. The brains were removed, cut longitudinally into two hemispheres and postfixed for 3 hrs at room temperature, then transferred to PBS and kept at 4° C. Serial sagittal sections, 50-μm thick, were cut with a Vibratome 1500 (Vibratome, St. Louis, Mo.). Immunostaining was carried following the standard procedure. The sections were incubated with primary antibodies to the target protein (see the list below) at 4° C. in PBS containing 0.2% Triton-100X and 3% BSA. After thorough washing with PBS, appropriate secondary antibodies (see the list below) were incubated in the same solution for 1 hr at room temperature. After washing with PBS, the sections were mounted on gelatine coated slides with DakoCytomation Fluorescent Mounting Medium (DakoCytomation, Carpinteria, Calif.). For the analysis of 5-bromo-2-deoxyuridine (BrdU) incorporation, sections were treated with 2M HCl for 30 min at 55° C., washed with PBS, treated with 1 mM sodium tetraborate for 10 min at room temperature, and finally washed with PBS. The following antibodies were used: chicken anti-GFP (Aves Laboratories, Tigard, Oreg.) 1:500; guinea pig anti-GFAP (Advanced Immunochemicals, Long Beach, Calif.) 1:500; mouse anti-nestin (Chemicon International, Temecula, Calif.) 1:100; mouse anti-NeuN (Chemicon) 1:800; rabbit anti Dcx (generous gift from Dr. C. A. Walsh, Harvard Medical School) 1:2500; rabbit anti-Prox I (generous gift from Dr. S. J. Pleasure, UCSF) 1:2000; rat anti-BrdU (Serotec, Raleigh, N.C.) 1:400; mouse anti-PSA-NCAM (Chemicon) 1:400; AlexaFluor 488 goat anti-chicken (Molecular Probes, Willow Creek Road, Eugene, Oreg.) 1:500; AlexaFluor 594 goat anti-mouse (Molecular Probes) 1:500; AlexaFluor 568 goat anti-rat (Molecular Probes) 1:500; Cy5 goat anti-guinea pig (Jackson Immunoresearch, West Grove, Pa.) 1:500; Cy5 goat anti-rabbit (Jackson Immunoresearch) 1:500; Texas Red donkey anti-chicken (Jackson Immunoresearch) 1:500.
(§2) Quantification. Quantitative analysis of cell populations was performed by means of design-based (assumption free, unbiased) stereology. Slices were collected using systematic-random sampling. One brain hemisphere was randomly selected per animal. The hemisphere was sliced sagittaly, in a lateral-to-medial direction, from the beginning until the end of the lateral ventricle, thus including the whole DG. The 50 μm slices, obtained with a 1500 Vibratome (Vibratome, St. Louis, Mo.), were collected in 6 parallel sets (5 in the case of the juvenile mice), each set consisting of 12 slices, each slice 300 μm apart from the next.
(§3) For counts in the DG, all the cells of each type described were counted in every slice, excluding those in the uppermost focal plane. The volume of the reference space (of the granule cell layer (GCL)+the subgranular zone (SGZ)) was calculated by the Cavalieri-point method. In the subventricular zone (SVZ), for BrdU counts, all the BrdU stained cells were counted in each slice, excluding those in the uppermost focal plane. For nestin-CFP cells, the two-stage approach was used. At least 10 optical disectors (20×20×20 μm), placed following a systematic-random manner, were applied on each slice. Then the volume of the space reference (of the SVZ) was estimated using the Cavalieri-point method.
All the imaging and quantification procedures were performed using a Zeiss LSM 510 confocal microscope and its software. […]

[2] = system: juvenile dentate gyrus; assay: Fluoxetine effect on neuronal precursor classes in the juvenile dentate gyrus of nestin-CFPnuc mice; format: in vivo, mouse
Description: as §1, §2
In the young animals, all the BrdU cells were counted in each slice, excluding those in the uppermost focal plane. The number of nestin-CFPnuc stained cells, the QNPs, and the ANPs, was estimated using the two-stage approach. At least 5 optical dissectors (20×20×20 μm) placed in a systematic-random manner, were applied to each slice. Then the volume of the space reference (of the SGZ) was estimated using the Cavalieri-point method.
(§4) All the imaging and quantification procedures were performed using a Zeiss LSM 510 confocal microscope and its software. Statistical analysis and graphs of the numeric data were obtained using SigmaPlot software (SYSTAT, Port Richmond, Calif.) and JMP (SAS Institute Inc., Cary, N.C.).
(§5) On the last day a single injection of BrdU, 150 mg/kg was also administered. […] On the last day they were also given a single injection of BrdU, 150 mg/kg. In both sets of experiments, animals were sacrificed either 24 h or 30 days after the end of the treatment and the BrdU injection.
The action of fluoxetine on stem/progenitor cells was investigated for similarity in both the juvenile and adult brain. […] In the DG of treated juvenile mice, precursor cells can be divided into the same categories as the cells in the adult brain (note that the animals are 20 or 49 days old at the time of analysis). […]

[3] = system: adult dentate gyrus; assay: Fluoxetine effect on neuronal precursor classes in the adult dentate gyrus of nestin-CFPnuc mice (confocal stereology, BrdU labeling); format: in vivo, mouse
Description: as §1, §2, §3, §4, §5

[4] = system: dentate gyrus (DG) of the adult brain; settings: cited from earlier work
[5] = exposure of newborn (p4) mice; cited from earlier work
[6] = 15 days from p5, 1 day, vs vehicle
[7] = 30 days after end of administration, n=5
[8] = adult, 15 days treatment, 24 h, mean±SEM, n=8
[9] = adult, 15 days treatment, 24 h, n=6
[10] = adult, 15 days treatment, 24 h, vs vehicle
[11] = adult, 15 days treatment, 1 day after BrdU, n=8
[12] = adult, 15 days treatment, sacrificed 30 days later, n=6

Q: With `CNCCC(Oc1ccc(C(F)(F)F)cc1)c1ccccc1` (stereo not shown) [fluoxetine, fluoxetine hydrochloride] as the compound, how does the “number of BrdU-labeled cells in the SVZ” value [1] read?
A: 9550±769

Q: And the “number of nestin-CFPnuc cells in the SVZ” value [1]?
A: 473±55 ×10^3

Q: What about the “volume of the SVZ” value ([1]; in mm³) of the same compound?
A: 0.603±0.051

Q: What about the “change in number of BrdU-labeled cells in the SVZ” value ([1]; vs vehicle) of the same compound?
A: No changes

Q: What about the “change in number of nestin-CFPnuc cells, their density and volume of the SVZ” value ([1]; vs vehicle) of the same compound?
A: no significant changes

Q: What about the “number of ANPs” value ([2]; 15 days from p5, 1 day) of the same compound?
A: 16972±1872

Q: And the “number of QNPs” value ([2]; 15 days from p5, 1 day)?
A: 42048±4328

Q: And the “number of dividing (BrdU-labeled) ANP cells” value ([2]; 15 days from p5, 1 day)?
A: 1698±184

Q: What about the “number of dividing (BrdU-labeled) QNP cells” value ([2]; 15 days from p5, 1 day) of the same compound?
A: 2021±434

Q: And the “number of nestin-CFPnuc cells” value ([2]; 15 days from p5, 1 day)?
A: 61256±4970

Q: And the “number of BrdU-positive cells in the DG” value ([2]; 15 days from p5, 1 day after BrdU)?
A: 9796±834

Q: And the “change in number of dividing (BrdU-labeled) QNP cells (not statistically significant)” value [2, 6]?
A: 28.7%

Q: What about the “fraction of BrdU+NeuN+ cells among total BrdU-positive cells (FIG. 7K BrdU-labeled QNP, FIG. 7L BrdU-labeled ANP)” value [2, 6] of the same compound?
A: did not change

Q: What about the “increase in number of ANPs” value [2, 6] of the same compound?
A: 52.6%

Q: And the “increase in number of dividing (BrdU-labeled) ANP cells” value [2, 6]?
A: 67.7%

Q: And the “increase in number of nestin-CFPnuc cells” value [2, 6]?
A: 35.6%

Q: And the “change in number of QNPs (did not reach statistical significance)” value ([2]; 15 days from p5, 1 day, vs vehicle, p=0.134)?
A: 23.5%

Q: What about the “increase in number of BrdU-positive cells in the DG” value ([2]; 15 days from p5, 30 days after end of administration, vs vehicle) of the same compound?
A: 42.2%

Q: What about the “increase in number of BrdU-positive cells in the DG” value ([2]; 15 days treatment from p5, 1 day after BrdU, vs vehicle) of the same compound?
A: 36.3%

Q: And the “fraction of BrdU- and NeuN-double-positive cells among total BrdU-positive cells” value ([2]; 30 days after end of administration)?
A: 93.6%

Q: And the “number of BrdU- and NeuN-double-positive cells” value [2, 7]?
A: 1892±119

Q: What about the “number of BrdU-positive cells in the DG” value [2, 7] of the same compound?
A: 2026±153

Q: What about the “increase in number of BrdU- and NeuN-double-positive cells” value ([2]; 30 days after end of administration, vs vehicle) of the same compound?
A: 42.3%

Q: What about the “increase in number of BrdU-labeled cells in the DG” value ([3]; 7-month old mice, 10 mg/kg once per day for 15 days, 24 h after BrdU, vs vehicle) of the same compound?
A: 40.9%

Q: What about the “number of BrdU-labeled cells in the DG” value ([3]; adult, 10 mg/kg/day 15 days, 24 h after BrdU, mean±SEM, n=8) of the same compound?
A: 758±58

Q: What about the “change in Dcx-positive cells (compared with PSA-NCAM-positive cells)” value ([3]; adult, 15 days treatment, 24 h) of the same compound?
A: Identical changes

Q: And the “number of ANP cells” value [3, 8]?
A: 5745±506

Q: And the “number of QNP cells” value [3, 8]?
A: 4675±518

Q: What about the “number of BrdU-labeled ANPs” value [3, 9] of the same compound?
A: 410±33

Q: And the “number of BrdU-labeled QNPs” value [3, 9]?
A: 90±16

Q: And the “number of PSA-NCAM-positive cells (NB1, NB2 and IN)” value ([3]; adult, 15 days treatment, 24 h, n=8)?
A: 11298±719

Q: What about the “change in number of BrdU-labeled QNPs” value [3, 10] of the same compound?
A: not affected

Q: And the “change in number of QNP cells” value [3, 10]?
A: no change

Q: What about the “fraction of dividing cells among ANPs” value [3, 10] of the same compound?
A: did not change

Q: And the “fraction of dividing cells among QNPs” value [3, 10]?
A: did not change

Q: And the “increase in number of ANP cells” value [3, 10]?
A: 49.6%

Q: And the “increase in number of BrdU-labeled ANPs” value [3, 10]?
A: 46.4%

Q: What about the “increase in number of CFPnuc-positive cells (QNPs and ANPs together)” value [3, 10] of the same compound?
A: 24.7%

Q: And the “increase in number of PSA-NCAM-positive cells (NB1, NB2 and IN)” value [3, 10]?
A: 26.5±7.2%

Q: What about the “number of IN cells” value [3, 11] of the same compound?
A: 858±88

Q: What about the “number of NB1 cells” value [3, 11] of the same compound?
A: 6988±538

Q: And the “number of NB2 cells” value [3, 11]?
A: 3452±413

Q: What about the “increase in number of NB1 cells” value ([3]; adult, 15 days treatment, 1 day after BrdU, vs vehicle) of the same compound?
A: 42.1%

Q: And the “fraction of BrdU+NeuN+ cells among total BrdU-positive cells” value ([3]; adult, 15 days treatment, sacrificed 30 days later)?
A: 92.8±1.6%

Q: What about the “number of BrdU-labeled NeuN-positive neurons” value [3, 12] of the same compound?
A: 316±29

Q: What about the “number of BrdU-labeled cells in the DG” value [3, 12] of the same compound?
A: 342±24

Q: What about the “increase in number of BrdU-labeled cells in the DG” value ([3]; adult, 15 days treatment, sacrificed 30 days later, vs vehicle) of the same compound?
A: 46.2%

Q: And the “generation of new neurons in the dentate gyrus” value [4]?
A: increases generation of new neurons

Q: What about the “anxiety when animals become adults” value [5] of the same compound?
A: elevated anxiety
